Test system: A375 human melanoma xenografts
Test: Example 6 efficacy study in A375 human melanoma xenografts (tumor volume, T/C, TGI)
Format: in vivo, BALB/c nude mice
Details: 10 mg/kg, p.o., BID × 21 days; for T/C / TGI / Tumor Size on PG-D21: PG-D21; for Tumor Size on PG-D21 / Tumor volume: Mean ± SEM
Procedure: For efficacy study, compounds were tested in the A375 human melanoma xenografts. Known BRAF inhibitors encorafenib, and dabrafenib were used as positive controls. Encorafenib and dabrafenib were administered to BALB/c nude mice bearing A375 tumors on PG-D1 and dosed PO daily (QD) for 3 weeks. Encorafenib was dosed at 35 mg/kg. Dabrafenib was dosed at 100 mg/kg. Compound 83, Compound 93, Compound 70, and Compound 54 were administered to BALB/c nude mice bearing A375 tumors on PG-DO and dosed PO twice per day (BID) for 3 weeks. Compound 83, Compound 93, Compound 70, and Compound 54 were dosed at 10 mg/kg.
The A375 tumor cells were maintained in vitro in DMEM medium supplemented with […] and 1% Penicillin-Streptomycin at 37° C. in an atmosphere of 5% CO2 in air. The tumor cells were routinely subcultured twice weekly. The cells growing in an exponential growth phase were harvested and counted for tumor inoculation.
Each mouse was inoculated subcutaneously at the right flank with A375 tumor cells (5×10^6) in 0.2 mL of PBS with Matrigel (PBS: Matrigel=1:1) supplemented for tumor development. Animals were grouped for the treatment on day 16 after tumor inoculation when the average tumor volume reached 221 mm^3 for efficacy study and 386 mm^3 for PKPD study. The test articles administration and the animal numbers in each group are shown in the above experimental Tables.
Prior to the onset of drug treatment, mice were measured for tumor size in two dimensions using a caliper, and the tumor volume (mm^3) was calculated using formula V=0.5 a×b^2 where a and b are the long and short diameters of the tumor in mm, respectively. Mice were randomized into different treatment groups based on the tumor volume.
The major endpoint was to see if the tumor growth could be delayed or mice could be cured. The tumor size was then used for calculations of T/C value. The T/C value (in percent) is an indication of antitumor effectiveness; T and C are the mean volumes of the treated and control groups, respectively on specified day.
TGI was calculated for each group using the formula: TGI (%)=[1−(Ti−T0)/(Ci−C0)]×100; Ti is the average tumor volume of a treatment group on a given day, T0 is the average tumor volume of the treatment group on the day of treatment start, Ci is the average tumor volume of the vehicle control group on the same day with Ti, and C0 is the average tumor volume of the vehicle group on the day of treatment start.

Structure (SMILES)	T/C [%]	TGI [%]	Tumor Size on PG-D21 [mm^3]	Tumor volume (day 0) [mm^3]	Tumor volume (day 4) [mm^3]	Tumor volume (day 7) [mm^3]	Tumor volume (day 11) [mm^3]	Tumor volume (day 14) [mm^3]	Tumor volume (day 18) [mm^3]	Tumor volume (day 21) [mm^3]
CCN(C)S(=O)(=O)Nc1ccc(F)c(Oc2ccc3ncc([C@@H]4COC5(CCN(C6CCC(c7cc8c(cc7F)c(N7CCC(=O)NC7=O)nn8C)CC6)CC5)C4)nc3c2)c1C#N (single isomer, unassigned) [Compound 54]	4.1	106.6	90 ± 27	221 ± 11	132 ± 13	90 ± 14	65 ± 13	57 ± 13	53 ± 13	90 ± 27
Cn1nc(N2CCC(=O)NC2=O)c2cc(F)c(C3CCC(N4CCC5(CC4)CC(n4cnc6ccc(Oc7c(F)ccc(NS(=O)(=O)C8CCCC8)c7C#N)cc6c4=O)C5)CC3)cc21 (single isomer, unassigned) [Compound 93, N-[2-cyano-3-[3-[7-[4-[3-(2,4-dioxohexahydropyrimidin-1-yl)-5-fluoro-1-methyl-indazol-6-yl]cyclohexyl]-7-azaspiro[3.5]nonan-2-yl]-4-oxo-quinazolin-6-yl]oxy-4-fluoro-phenyl]cyclopentanesulfonamide]	3.3	107.4	73 ± 18	221 ± 9	133 ± 6	97 ± 6	69 ± 5	59 ± 5	52 ± 4	73 ± 18
CCN(C)S(=O)(=O)Nc1ccc(F)c(Oc2ccc3ncn([C@H]4COC5(CCN(C6CC(c7cc8c(cc7F)c(N7CCC(=O)NC7=O)nn8C)C6)CC5)C4)c(=O)c3c2)c1C#N (single isomer, unassigned) [Compound 70]	0.9	110.1	19 ± 2	221 ± 10	111 ± 13	66 ± 6	44 ± 3	34 ± 2	24 ± 2	19 ± 2
CCN(C)S(=O)(=O)Nc1ccc(F)c(Oc2ccc3ncn(C4CC5(CCN(C6CCC(c7cc8c(cc7F)c(N7CCC(=O)NC7=O)nn8C)CC6F)CC5)C4)c(=O)c3c2)c1C#N (single isomer, unassigned) [Compound 83, 6-[2-cyano-3-[[ethyl(methyl)sulfamoyl]amino]-6-fluoro-phenoxy]-3-[7-[4-[3-(2,4-dioxohexahydropyrimidin-1-yl)-5-fluoro-1-methyl-indazol-6-yl]-2-fluoro-cyclohexyl]-7-azaspiro[3.5]nonan-2-yl]-4-oxo-quinazoline]	0.7	110.3	15 ± 1	221 ± 11	89 ± 11	62 ± 7	39 ± 3	31 ± 2	22 ± 1	15 ± 1

Reference: patent US20260297060A1, “COMPOUNDS FOR THE DEGRADATION OF MUTANT BRAF” (C4 THERAPEUTICS, INC., priority 2023, published 2026)
